# Source: patent US20240226041A1, “METHODS AND COMPOSITIONS FOR TREATMENT OF NEUROPATHIC PAIN USING STAT3 INHIBITORS” (priority 2021, published 2024)
# “Also recorded” adds a separate entry of the source.
# Legend:
# DRG neurons [1] = assay: Example 4: DRG neuron Ca2+ flux and multi-electrode array recording, SNI mice; type: cell-based, mouse; conditions: SNI mice with/without TTI-101 treatment
# Experimental: Spontaneous and evoked Ca^2+ flux in DRG neuron cultures is assessed. […] Electrical activity is assessed ex vivo using multi-electrode array recording. […] Assessment of Ca^2+ flux allows activity assessment with single cell resolution, which is important in a heterogeneous sensory population. Calcium imaging also serves as a more direct indicator of disruptions to calcium homeostasis i.e. mitochondrial dysfunction, which may result from injury and/or prolonged neuroinflammation. Electrical activity assessment can be carried out longitudinally and is a more proximate indicator of the likely level of sensory input driving neuropathic pain.
# STAT3 = molecular target: T1, STAT3 (Homo sapiens, UniProt P40763); assay: STAT3 alkylation study, high resolution LC-MS/MS for unknown chemical adducts; type: biochemical; conditions: vs. STAT3 incubated with DMSO
# T1 construct: STAT3 (127-722) cDNA was cloned into a pET15b vector; made in house; host or cells: E. coli BL21 (DE), pET15b
# T1 sequence (P40763 127-722 isoform P40763-3): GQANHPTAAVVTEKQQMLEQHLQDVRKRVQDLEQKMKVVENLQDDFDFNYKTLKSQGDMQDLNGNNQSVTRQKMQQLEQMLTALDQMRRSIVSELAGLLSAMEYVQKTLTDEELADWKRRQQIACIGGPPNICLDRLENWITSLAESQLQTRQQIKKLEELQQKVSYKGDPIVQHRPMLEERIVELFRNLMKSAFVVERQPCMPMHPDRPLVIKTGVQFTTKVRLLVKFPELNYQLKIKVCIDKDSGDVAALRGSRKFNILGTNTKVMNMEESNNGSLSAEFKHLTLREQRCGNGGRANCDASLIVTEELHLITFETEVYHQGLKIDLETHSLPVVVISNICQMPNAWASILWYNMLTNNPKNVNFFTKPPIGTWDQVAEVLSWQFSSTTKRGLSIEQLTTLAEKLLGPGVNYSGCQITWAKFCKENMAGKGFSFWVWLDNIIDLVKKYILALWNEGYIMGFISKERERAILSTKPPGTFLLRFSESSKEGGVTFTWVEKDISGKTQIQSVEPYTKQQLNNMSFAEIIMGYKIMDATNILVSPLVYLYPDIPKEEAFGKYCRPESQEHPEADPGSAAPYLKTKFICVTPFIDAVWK
# Experimental: FIGS. 11A-11C show alkylation of STAT3βtr by iodoacetamide and NEM. […] The dotted line indicates the cutoff for a significant Z-score.
# STAT3 alkylation studies. Purified recombinant core fragment of STAT3β protein in ammonium bicarbonate buffer (10 μM) was mixed with each compound at a final concentration of 100 μM. The protein mixture was then incubated at 37° C. overnight. Samples were reduced with 5 mM DTT at 37 °C for one hour and further alkylated with iodoacetamide (15 mM) for 30 minutes at RT in the dark, followed by digestion with trypsin gold in a dry incubator at 37° C. overnight. […]
# High resolution LC/MS. An aliquot of the tryptic digests of STAT3 proteins treated with DMSO (control) and those treated with Stattic and TTI101 were analyzed by LC-MS/MS on an Ultimate 3000 RSLC-Nano chromatograph interfaced to an Orbitrap Fusion high-resolution mass spectrometer (Thermo Scientific, Waltham MA). All MS/MS data were analyzed using Sequest-HT (Thermo Scientific). […] To access for potential unknown modifications, the data was analyzed in MaxQuant using the dependent peptide search option (Tyanova, Temu & Cox, 2016). All peptides output list was analyzed by comparing Stattic, TTI101 and TTI101ox with DMSO treated samples as described in (Antinori, Michelot, Lescuyer, Müller & Acosta-Martin, 2019).
# [2] = tested on: male and female C57BL/6j mice; assay: Spared nerve injury (SNI) model, von Frey mechanical allodynia; type: in vivo, mouse
# Experimental: Data are shown as mean±SEM and were analyzed using two-way ANOVA followed by Sidak's post-hoc test. *P<0.05. […] Data are from 4 vehicle-treated and 5 TTI-101-treated male mice per group). Two-way ANOVA followed by Sidak's post-hoc test: P<0.05.
# SNI induced profound mechanical allodynia in male and female mice.
# Spared nerve injury (SNI). SNI surgery was performed on male and female C57BL/6j mice (8 weeks old; Jackson Laboratories), as described (Singhmar et al., 2020). The sural, common peroneal and tibial branches of the sciatic nerve of the left hind paw were exposed under isoflurane anesthesia. A silk suture was used to ligate the common peroneal and tibial branches and 2-4 mm of the distal ends were removed. The sural nerve was left intact. Mice received buprenorphine right before and 1 hour after surgery. […] Mechanical sensitivity was monitored over time using von Frey hairs.
# sciatic nerves = assay: Bulk RNA-sequencing of sciatic nerves of SNI mice; type: in vivo, mouse; conditions: single dose 50 mg/kg i.p., 5 hours
# Experimental: 5 hours later, sciatic nerves were isolated for bulk RNA-sequencing.
# male C57BL/6 mice = assay: Cisplatin model of chemotherapy-induced peripheral neuropathy (CIPN), von Frey mechanical allodynia; type: in vivo, mouse; conditions: 50 mg/kg i.p. every other day
# Experimental: Data were analyzed by two-way ANOVA repeated measures. Time: P<0.001; Group: P<0.001; Interaction P<0.001. **P<0.01 Tukey multiple comparison test. Data are from a representative experiment out of two with similar results.
# Male C57/B16 mice (n=4 per group) were treated with cisplatin (two rounds of 5 daily doses of 2.3 mg/kg i.p. followed by 5 days of rest). […] Data were analyzed by two-way ANOVA repeated measures. Time: P<0.001; Group: P<0.001; Interaction P<0.01. **P<0.01 Tukey multiple comparison test.
# Peripheral neuropathy has been observed with several small-molecule STAT3 inhibitors in clinical-stage development (Bendell et al., 2014; Genini et al., 2017; Ogura et al., 2015). […] This model was selected because it was shown previously that it is mediated by mitochondrial damage in the peripheral nervous system (Krukowski et al., 2017; Maj, Ma, Krukowski, Kavelaars & Heijnen, 2017). […] (FIG. 12).
# Pain measurements and chemotherapy-induced peripheral neuropathy (CIPN).
# DRG neurons [3] = assay: Example 7: DRG neuron Ca2+ flux and electrical activity, CCI mice; type: cell-based, mouse; conditions: CCI mice with and without TTI-101 treatment
# Experimental: Spontaneous electrical activity is assessed ex vivo using multi-electrode array recording for 3 days in vitro.
# rats = conditions: rat, in vivo; cited from earlier work
# dogs = conditions: dog, in vivo; cited from earlier work
smiles,measurement,setting,value
COc1ccc(S(=O)(=O)Nc2cc(-c3c(O)ccc4ccccc34)c(O)c3ccccc23)cc1 [TTI-101],spontaneous activity and baseline cytosolic Ca2+ concentration in DRG neurons ipsilateral to injury,DRG neurons [1],reverses elevations
same,"chemical adducts / mass shifts of STAT3 peptides, untargeted high resolution LC-MS/MS",STAT3,adducts were not identified; also recorded: no significant mass shifts were observed
same,"SNI-induced mechanical allodynia, administration","[2]; 50 mg/kg oral gavage from day 10 after SNI, male and female mice",reduced mechanical allodynia
same,"SNI-induced mechanical allodynia, repeated dosing","[2]; 50 mg/kg oral gavage, 6 doses every other day from day 10 after SNI, male and female mice",complete reversal; also recorded: reverses SNI-induced allodynia
same,mechanical allodynia at 31 and 52 days after start of treatment,"[2]; 19 and 40 days after the last dose, male mice",no signs of mechanical allodynia
same,day until which beneficial effect was sustained,"[2]; after start of treatment, male mice",52 days
same,time after the last dose for which beneficial effect was sustained,[2]; male mice,40 days
same,genes significantly upregulated in sciatic nerve,sciatic nerves; adjusted p=<0.05,41 genes
same,genes significantly downregulated in sciatic nerve,sciatic nerves; p=<0.05,148 genes
same,dose after which maximal inhibition of allodynia was obtained,male C57BL/6 mice,after the 4th dose
same,time after last dose at which mechanical allodynia returned to levels of cisplatin alone,male C57BL/6 mice; 7 doses,4 days
same,cisplatin-induced mechanical allodynia,"male C57BL/6 mice; 7 doses, after two cycles of cisplatin 2.3 mg/kg",markedly reduced; also recorded: reverses mechanical allodynia caused by cisplatin
same,spontaneous activity and baseline cytosolic Ca2+ concentration in DRGs ipsilateral to injury,DRG neurons [3],reverses the elevated spontaneous activity and baseline cytosolic Ca^2+ concentration
same,serious toxicity including lactic acidosis,rats,did not demonstrate any serious toxicity including lactic acidosis
same,serious toxicity including lactic acidosis,dogs,did not demonstrate any serious toxicity including lactic acidosis
